From patent US5512671A, “Ether lipid-nucleoside covalent conjugates” (Wake Forest University, priority 1995, dated 1996) come the findings set out here.

For data set [1], the system named is HIV-1. In words: Plaque assay: inhibition of HIV-1 syncytial plaque formation in CEM-SS cells (Example 15). The class given is cell-based, human immunodeficiency virus type 1 (HIV-1). Conditions: for IC50: Human immunodeficiency virus 1, CEM-SS, 120 h, read-out: Inhibitory Concentration50 for HIV-1 Plaque Formation; for Differential Selectivity: ratio IC50 for cytotoxicity / IC50 for HIV1 plaque formation. An excerpt:
Anti-HIV1 Activity of Lipid-Nucleoside Conjugates. […] In brief, CEM-SS cell monolayers were infected with HIV-1. […] Plaques were counted at five days after infection. In this assay HIV-1 syncytial plaques are seen as large, multicellular foci (10 to 25 nuclei/syncytium) that appear either brown and granular or clear. Silnce the number of HIV-1 syncytial plaques correlates with reverse transcriptase (RT) and p24 core antigen activity in the HIV-1 infected cell overlay fluids, the syncytial plaque assay can be used to quantify the amount of infectious virus. […] The activity of p24 core antigen induced by HIV-1 infection of CEM-SS cells was measured spectrophotometrically using the commercial Coulter EIA.

The nature of a further data set: in vitro. Conditions: human, cem-ss cells.
The subject of data set [2] is HIV-1. In words: HIV-1 plaque formation in CEM-SS cells (Example 23). The class given is cell-based. Conditions: for IC50: read-out: IC50 HIV-1 Plaque Formation; for D.S. (Differential selectivity): average IC50 for CEMSS cell growth / average IC50 for HIV1 plaque formation. Here is the method: Anti-HIV1 Activity of Lipid-Nucleoside Conjugates. CEM-SS cells were seeded (50,000 cells/ml RPMI-1640 growth medium) as a monolayer in 96-well dishes, innoculated with 50 to 100 plaque forming units of HIV-1 and overlaid with serial dilutions of lipid-nucleoside conjugate in RPHI-1640 growth medium. Plaques were counted after five days incubation at 37° C. to determine the 50% inhibitory concentration.

In data set [3] the test system is CEM-SS cells. Kind of data set: CEM-SS cell growth, 3H-Tdr pulse label DNA synthesis (Example 23). The class given is cell-based. Conditions: Homo sapiens, 48 hours at 37° C., then 3H-Tdr 8 hours.
The subject of data set [4] is HIV-1. Kind of data set: HIV-1 induced RT in persistently infected monocyte/macrophage (U1) cells. Conditions: control 79,328 DPM = 100. In kind it is cell-based. An excerpt:
(§1) See C. Perno et al., J. Exp. Med. 168, 1111 (1984).

For data set [5], the system named is HIV-1. Kind of data set: HIV-1 induced p24 core antigen synthesis in persistently infected monocyte/macrophage (U1) cells. In kind it is cell-based. Conditions: control 94 = 100.
Text: as §1

Data set [6] has as its system HIV-1. Kind of data set: Infectious HIV-1 production (PFU) in persistently infected monocyte/macrophage (U1) cells. The class given is cell-based.
Text: as §1

Data set [7] relates to CEM-SS cells. In words: Cell cytotoxicity (Example 15, Table 1). Conditions: conjugate IC50 53.8 μM vs AZT IC50 5.6 μM.
[8] abbreviates: Human immunodeficiency virus 1, 120 h, CEM-SS cells, five days incubation at 37° C.

As to `CCCCCCCCCCCCCCCCOCC(CP(=O)(O)OC[C@H]1O[C@@H](n2cc(C)c(=O)[nH]c2=O)C[C@@H]1N=[N+]=[N-])OC` (stereo partly drawn) [Compound E, 3'-Azido-3'-deoxythymidine-5'-phosphono-D,L-3-hexadecyloxy-2-methoxypropane], in the data set with HIV-1 [1], the IC50 worked out at 20 ± 10 nM and the “Differential Selectivity” value was 1260. Further, half-maximal cytotoxicity in “in vitro” (CC50) was put at 25200 ± 1100 nM.
With `CCCCCCCCCCCCCCCCOCC(COP(=O)([O-])OC(CC(=O)OC[C@H]1O[C@@H](n2cc(C)c(=O)[nH]c2=O)C[C@@H]1N=[N+]=[N-])C[N+](C)(C)C)OCC` (stereo partly drawn) [Compound AA, 3'-Azido-3'-deoxythymidine-5'-butyrate-γ-N,N,N-trimethyl-ammonium-β-(1-phospho-2-ethoxy-3-hexadecyloxypropane)], the IC50 in the data set with HIV-1 [2] (setting [8]) was 4 nM. Moreover, the “D.S. (Differential selectivity)” value with HIV-1 [2] is listed as 3375.
As to `CCCCCCCCCCCCCCCCCC(=O)NCC(COP(=O)(O)OP(=O)(O)OC[C@H]1O[C@@H](n2cc(C)c(=O)[nH]c2=O)C[C@@H]1N=[N+]=[N-])OCC` (stereo partly drawn) [Compound H, 3'-Azido-3-deoxythymidine-5'-diphosphate-D,L-3-octadecanamido-2-ethoxypropane], the IC50 was found to be 11 nM in the data set with HIV-1 [2] (setting [8]) and 6600 nM in the data set on CEM-SS cells [3]. In addition, the “D.S. (Differential selectivity)” value in the data set with HIV-1 [2] came to 600.
For `CCCCCCCCCCCCCCCCCC(=O)NCC(COP(=O)(O)OC[C@@H]1CC[C@H](n2cnc3c(=O)[nH]cnc32)O1)OCC` (stereo partly drawn) [Compound D, 2,3,-dideoxyinosine-5'-monophosphate-D,L-3-octadecanamido-2-ethoxypropane], in the data set on HIV-1 [1], the IC50 was found to be 1560 ± 800 nM and the “Differential Selectivity” value was more than 64. The CC50 (commonly the concentration giving 50% cytotoxicity) in the data set “in vitro” is more than 100000 nM.
Consider `CCCCCCCCCCCCCCCCCC(=O)NCC(COP(=O)([O-])OC(CC(=O)OC[C@H]1O[C@@H](n2cc(C)c(=O)[nH]c2=O)C[C@@H]1N=[N+]=[N-])C[N+](C)(C)C)OCC` (stereo partly drawn) [BB, 3'-Azido-3-deoxythymidine-5'-butyrate-γ-N,N,N-trimethyl-ammonium-β-(1-phospho-2-ethoxy-3octadecanamidopropane)], for which the IC50 in the data set on HIV-1 [2] (setting [8]) was determined as 40 nM. Besides, in the data set on HIV-1 [2], the “D.S. (Differential selectivity)” value is 342.
As for `Cc1cn([C@H]2C[C@H](N=[N+]=[N-])[C@@H](CO)O2)c(=O)[nH]c1=O` [AZT, 3'-azido-3'-deoxythymidine], the IC50 in the data set with HIV-1 [1] came out at 4 ± 1 nM; in the data set with HIV-1 [2] (Human immunodeficiency virus 1, CEM-SS, 120 h) it was 4 nM. For the same compound, the “RT DPM, Percent of Control” value with HIV-1 [4] was 90% of Control. The “p24 core Ag, Percent of Control” value with HIV-1 [5] is 101% of Control. Also, the “inhibition of infectious HIV-1 production” value in the data set on HIV-1 [6] came to 13%. Moreover, the “PFU, Percent of Control” value with HIV-1 [6] (control 750 PFU = 100) is listed as 87% of Control. The CC50 in “in vitro” is 5600 nM.
`CCCCCCCCCCCCCCCCOCC(COP(=O)(O)OP(=O)(O)OCC1OC(n2cc(C)c(=O)[nH]c2=O)CC1N=[N+]=[N-])OCC` [A, 3'-Azido-3'-deoxythymidine-5'-diphosphate-D,L-3-hexadecyloxy-2-ethoxypropane] registered an IC50 in the data set on CEM-SS cells [3] of more than 100000 nM.
As to `CCCCCCCCCCCCCCCCCC(=O)NCC(COP(=O)(O)OC[C@H]1O[C@@H](n2cc(C)c(=O)[nH]c2=O)C[C@@H]1N=[N+]=[N-])OCC` (some centres unmarked) [A], the IC50 in the data set with HIV-1 [1] was 30 ± 20 nM. The compound further yielded a CC50 in the data set “in vitro” of 53800 ± 7800 nM.
`CCCCCCCCCCCCCCCCSCC(COP(=O)(O)OC[C@H]1O[C@@H](n2cc(C)c(=O)[nH]c2=O)C[C@@H]1N=[N+]=[N-])OC` (stereo partly drawn) [Compound C, 3'azido-3'-deoxythymidine-5'-monophosphate-D,L-3-hexadecylthio-2-methoxypropane]: in the data set on HIV-1 [1], the IC50 is 20 ± 10 nM and the “Differential Selectivity” value is listed as 1465. In addition, the CC50 in the data set “in vitro” was determined as 29200 ± 5700 nM.
As for `CCCCCCCCCCCCCCCCCC(=O)NCC(COP(=O)(O)OC[C@H]1O[C@@H](n2cc(C)c(=O)[nH]c2=O)C[C@@H]1N=[N+]=[N-])OCC` (stereo partly drawn) [Compound A, 3,-azido-3'-deoxythymidine-5'-monophosphate-D,L-3-octadecanamido-2-ethoxypropane], the “decrease in cell cytotoxicity compared to AZT” value with CEM-SS cells [7] is “about ten-fold”.
For `CCCCCCCCCCCCCCCCOCC(COP(=O)(O)OC[C@H]1O[C@@H](n2cc(C)c(=O)[nH]c2=O)C[C@@H]1N=[N+]=[N-])OCC` (stereo partly drawn) [Compound B, 3'-azido-3'deoxythymidine-5'-monophosphate-D,L-3-hexadecyloxy-2-ethoxypropane], in the data set on HIV-1 [1], the IC50 was 30 ± 20 nM and the “Differential Selectivity” value is recorded as 1167. In the data set “in vitro”, this compound displayed a CC50 of 35000 ± 2100 nM.
Turning to `O=c1[nH]cnc2c1ncn2[C@H]1CC[C@@H](CO)O1` [DDI, dideoxyinosine, reference compound], the IC50 with HIV-1 [1] turned out to be 1700 nM. In addition, the CC50 in the data set “in vitro” was more than 100000 nM.
